Data reported in ChEMBL document CHEMBL1201862, “PubChem BioAssay data set” (2004).
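Tested at 5 concentrations; 48 h exposure; 96-well plates; endpoints linearly interpolated, else capped at highest concentration. GI50: concentration for 50% inhibition of growth.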 Activity calls are given as the source filed them. Cut-off read from the data, not from the text of the source: active = GI50 up to about 1.1 µM and inactive = higher.

Experiments:
Assay in all cases: NCI tumour cell line growth inhibition, 48 h
UACC-62 = system: UACC-62
T47D = system: T47D
OVCAR-8 = system: OVCAR-8
SNB-75 = system: SNB-75
SNB-19 = system: SNB-19
KM12 = system: KM12
NCI/ADR-RES = system: NCI/ADR-RES
MDA-MB-231 = system: MDA-MB-231
NCI-H460 = system: NCI-H460
A549 = system: A549
SK-MEL-2 = system: SK-MEL-2
MDA-MB-435 = system: MDA-MB-435
SW-620 = system: SW-620
RPMI-8226 = system: RPMI-8226
TK-10 = system: TK-10
SK-MEL-28 = system: SK-MEL-28
SF-295 = system: SF-295
ACHN = system: ACHN
UO-31 = system: UO-31
SN12C = system: SN12C

Measured: GI50

Nc1n[nH]c(Nc2ccc(Cl)cc2)c1P(=O)(c1ccccc1)c1ccccc1
inactive: UACC-62 22.2 µM | T47D 58.7 µM | OVCAR-8 18.4 µM | SNB-75 21.6 µM | SNB-19 26.7 µM | KM12 17.4 µM | NCI/ADR-RES 20.7 µM | MDA-MB-231 19.1 µM | NCI-H460 21.3 µM | A549 23.9 µM | SK-MEL-2 19.9 µM | MDA-MB-435 19.1 µM | SW-620 34.3 µM | RPMI-8226 39.5 µM | TK-10 30.1 µM | SK-MEL-28 25.7 µM | SF-295 18.6 µM | ACHN 34.4 µM | UO-31 29.4 µM

COc1ccc(/C=N/NC(=O)O)cc1
inactive: UACC-62 > 100 µM | SN12C > 100 µM | T47D > 100 µM | SNB-75 > 100 µM | SNB-19 > 100 µM | KM12 > 100 µM | NCI/ADR-RES > 100 µM | MDA-MB-231 > 100 µM | NCI-H460 > 100 µM | A549 > 100 µM | SK-MEL-2 > 100 µM | MDA-MB-435 > 100 µM | SW-620 > 100 µM | RPMI-8226 > 100 µM | TK-10 > 100 µM | SK-MEL-28 > 100 µM | SF-295 > 100 µM | ACHN > 100 µM | UO-31 > 100 µM

CC(=O)OCC1OC(n2c3c(cc(C#N)c2=S)CCCCC3)C(OC(C)=O)C(OC(C)=O)C1OC(C)=O (centres undefined)
inactive: UACC-62 93.8 µM | SN12C > 100 µM | T47D 29.4 µM | OVCAR-8 > 100 µM | SNB-75 99.1 µM | SNB-19 > 100 µM | KM12 > 100 µM | NCI/ADR-RES > 100 µM | MDA-MB-231 > 100 µM | NCI-H460 > 100 µM | A549 > 100 µM | SK-MEL-2 > 100 µM | MDA-MB-435 > 100 µM | RPMI-8226 > 100 µM | TK-10 > 100 µM | SK-MEL-28 > 100 µM | SF-295 > 100 µM | ACHN > 100 µM | UO-31 > 100 µM

CCOC(=O)c1csc(NC(=O)CN2CCN(c3ccccc3)CC2)n1
inactive: UACC-62 > 100 µM | T47D 94 µM | OVCAR-8 > 100 µM | SNB-75 38.4 µM | SNB-19 > 100 µM | KM12 > 100 µM | NCI/ADR-RES > 100 µM | MDA-MB-231 > 100 µM | NCI-H460 > 100 µM | A549 > 100 µM | SK-MEL-2 > 100 µM | MDA-MB-435 > 100 µM | SW-620 > 100 µM | RPMI-8226 > 100 µM | TK-10 > 100 µM | SK-MEL-28 > 100 µM | SF-295 > 100 µM | ACHN > 100 µM | UO-31 > 100 µM

Nn1c(S)nnc1C12CC3CC(CC(C3)C1)C2
inactive: UACC-62 > 100 µM | SN12C > 100 µM | T47D > 100 µM | SNB-75 > 100 µM | SNB-19 > 100 µM | KM12 > 100 µM | NCI/ADR-RES > 100 µM | MDA-MB-231 > 100 µM | NCI-H460 > 100 µM | A549 > 100 µM | SK-MEL-2 > 100 µM | MDA-MB-435 > 100 µM | SW-620 > 100 µM | RPMI-8226 > 100 µM | TK-10 > 100 µM | SK-MEL-28 > 100 µM | SF-295 > 100 µM | ACHN > 100 µM | UO-31 > 100 µM

c1ccc2c(CCNC3=NCCO3)cccc2c1
inactive: UACC-62 > 10 µM | T47D > 10 µM | OVCAR-8 > 10 µM | SNB-75 > 10 µM | SNB-19 > 10 µM | KM12 > 10 µM | NCI/ADR-RES > 10 µM | MDA-MB-231 > 10 µM | NCI-H460 > 10 µM | A549 > 10 µM | SK-MEL-2 > 10 µM | MDA-MB-435 > 10 µM | SW-620 > 10 µM | RPMI-8226 > 10 µM | TK-10 > 10 µM | SK-MEL-28 > 10 µM | SF-295 > 10 µM | ACHN > 10 µM | UO-31 4.26 µM
